Experimental data reported in patent publication US20260191874A1, “FUSED AMINO PYRIMIDINE COMPOUNDS FOR TREATMENT OF AUTISM SPECTRUM DISORDER, OBSESSIVE COMPULSIVE DISORDER AND TICS” (Ovid Therapeutics Inc., priority 2024, published 2026).

Target: T1, KCC3 (Homo sapiens, UniProt Q9UHW9)
T1 construct: expressed in transfected cells; host or cells: HEK-293
T1 sequence (Q9UHW9 1-1150): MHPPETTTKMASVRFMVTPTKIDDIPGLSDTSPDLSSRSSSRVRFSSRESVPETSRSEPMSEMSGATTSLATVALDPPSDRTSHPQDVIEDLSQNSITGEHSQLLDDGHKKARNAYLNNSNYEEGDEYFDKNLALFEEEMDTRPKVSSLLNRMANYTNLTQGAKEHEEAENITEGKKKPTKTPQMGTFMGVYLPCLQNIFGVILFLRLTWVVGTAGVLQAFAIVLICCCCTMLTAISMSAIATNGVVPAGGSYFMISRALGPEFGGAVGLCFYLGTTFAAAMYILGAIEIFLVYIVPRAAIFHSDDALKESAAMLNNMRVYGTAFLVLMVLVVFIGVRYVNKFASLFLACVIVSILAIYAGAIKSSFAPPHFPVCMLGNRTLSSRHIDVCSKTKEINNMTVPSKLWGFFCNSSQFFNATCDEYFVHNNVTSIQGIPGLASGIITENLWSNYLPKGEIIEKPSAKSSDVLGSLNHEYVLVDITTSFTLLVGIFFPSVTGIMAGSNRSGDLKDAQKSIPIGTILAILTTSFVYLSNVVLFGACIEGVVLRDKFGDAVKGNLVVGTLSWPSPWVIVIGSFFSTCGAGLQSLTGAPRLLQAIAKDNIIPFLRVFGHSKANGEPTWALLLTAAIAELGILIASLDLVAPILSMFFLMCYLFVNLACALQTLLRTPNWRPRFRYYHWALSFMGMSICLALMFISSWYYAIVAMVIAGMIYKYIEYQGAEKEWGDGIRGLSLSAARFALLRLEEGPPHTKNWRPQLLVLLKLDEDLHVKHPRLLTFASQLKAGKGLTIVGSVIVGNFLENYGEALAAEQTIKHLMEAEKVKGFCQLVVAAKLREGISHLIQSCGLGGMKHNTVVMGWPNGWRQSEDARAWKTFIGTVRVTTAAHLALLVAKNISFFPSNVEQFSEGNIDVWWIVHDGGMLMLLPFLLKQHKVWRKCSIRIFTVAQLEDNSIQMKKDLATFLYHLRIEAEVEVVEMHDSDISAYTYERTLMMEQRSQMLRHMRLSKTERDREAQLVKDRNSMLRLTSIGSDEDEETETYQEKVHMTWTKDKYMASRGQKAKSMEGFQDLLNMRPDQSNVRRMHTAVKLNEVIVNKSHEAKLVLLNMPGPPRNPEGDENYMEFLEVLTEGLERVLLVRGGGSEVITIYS
Experiment: Tl+ flux assay in HEK-293 cells expressing KCC3
Type: cell-based
Conditions: read-out: concentration at which effects on KCC3 were seen (EC50 chart, FIG. 1G)
Procedure: FLIPR TI Flux assay. HEK-293 cells were washed with HBSS, and then incubated with loading buffer containing TI sensitive fluorescent dye (https://www.moleculardevices.com), 20 μM bumetanide 20 μM ouabain and 2.5 mM probenecid for 1 h at room temperature (RT) under control conditions or with drugs in the dark using a FlexStation 3 microplate reader (Molecular Devices) and imaged […] for 30 min. Stimulus buffer was added containing 5 mM K^+/0.5 mM Tl^+ and cells were imaged every 1.5 over a 190 second time course The initial rate Tl^+ uptake (Relative Fluorescence Units (RFU) per second) was determined following addition of the stimulus buffer as outlined previously (Conway et al., 2017, supra) (Lee et al., 2022, supra).
Several studies have shown that the activity and plasma membrane accumulation of KCC2 is potentiated via phosphorylation of S940, a process mediated by the activity of protein kinase C and protein phosphatase 1 (Lee et al., 2011, supra; Lee et al., J Biol Chem 282, 29777-29784 (2007); Moore et al., Proc. Natl. Acad. Sci. U.S.A 115, 10166-10171 (2018); Moore et al., Trends Neurosci. 40, 555-571 (2017); Silayeva et al., Proc. Natl. Acad. Sci. U.S.A 112, 3523-3528 (2015)). […] Compared to KCC2, effects on KCC3, KCC4, and NKCC1 were only seen at concentrations more than 35-fold that of KCC2 (≥100 μM) (FIG. 1G).

`C[C@@H]1CN(c2nc3c(c(Nc4ccc(C5CCCCC5)cc4)n2)COC3)CCO1` [Compound A, (R)—N-(4-cyclohexylphenyl)-2-(2-methylmorpholino)-5,7-dihydrofuro[3,4-d]pyrimidin-4-amine] showed an EC50 of at least 100 µM.
